Consider 6 compounds from US8871728B2, “Non-peptide macrocyclic histone deacetylese (HDAC) inhibitors and methods of making and using thereof” (Georgia Tech Research Corporation, priority 2007, dated 2014).

The target of experiment [1] is HDAC8 (Homo sapiens (Human), UniProt Q9BY41). Briefly: Fluor de Lys HDAC8 inhibition. As to conditions: for IC50: read-out: HDAC 8; for HDAC8: Nuclear Extract Isoform Selectivity: ratio of IC50 HDAC8 to nuclear extract. In kind it is biochemical.
Experiment [2] concerns HeLa nuclear extract HDAC1/2. Briefly: Fluor de Lys HDAC inhibition, HeLa nuclear extract. In kind it is biochemical, human.
Experiment [3] concerns lung fibroblasts. Briefly: Cell viability, trypan blue exclusion. In kind it is cell-based. Conditions: Fibroblast; untransformed cells. The source says:
(§1) Most importantly, the compounds we less toxic to untransformed cell-lines (lung fibroblast and HMEC).
(§2) Most importantly, these compounds are less toxic to untransformed cell-lines (lung fibroblast and HMEC) that we have studied to date.

The test system of experiment [4] is HMEC. Briefly: Cell viability, trypan blue exclusion. In kind it is cell-based. As to conditions: Homo sapiens; untransformed cells.
Source text: as §1, §2

The subject of experiment [5] is DU 145 cells. Briefly: Cell viability, trypan blue exclusion. In kind it is cell-based. As to conditions: Homo sapiens.
Source text: as §1, §2

In experiment [6] the test system is NCI-H69. Briefly: Cell viability, trypan blue exclusion. In kind it is cell-based. Conditions: Homo sapiens.
Source text: as §1, §2

For experiment [7], the system named is SKMES 1. The experiment can be described thus: Cell viability, trypan blue exclusion. It counts as cell-based. Conditions: Homo sapiens, SK-MES-1.
Source text: as §1, §2

The subject of experiment [8] is lung (A549). Briefly: Cell viability, MTS colorimetric assay. In kind it is cell-based. How it is done:
(§3) The effect of compounds 56a-e on cancer cell lines: prostate (DU-145), lung (A549), and breast cancer (MCF-7) and a non-transformed cell, human lung fibroblast cell (Hs1.Lu) were also evaluated.
(Tetrazolium assays rely on reduction of a dye to a coloured formazan, in cell work by metabolically active cells.)

The subject of experiment [9] is prostate (DU-145). Briefly: Cell viability, MTS colorimetric assay. It counts as cell-based. How it is done:
as §3

For experiment [10], the system named is breast cancer (MCF-7). The experiment can be described thus: Cell viability, MTS colorimetric assay. In kind it is cell-based. How it is done:
as §3

In experiment [11] the target is HDAC6 (Homo sapiens (Human), UniProt Q9UBN7). The experiment can be described thus: Fluor de Lys HDAC6 inhibition. In kind it is biochemical. As to conditions: for IC50: Table 5, read-out: HDAC 6; for HDAC6: Nuclear Extract Isoform Selectivity: ratio of IC50 HDAC6 to nuclear extract. The source says: Fluor de Lys™ is a fluorescence based HDAC activity assay comprising a combination of fluorogenic Histone deAcetylase Lysyl substrate and a developer. The kit is a highly sensitive and convenient alternative to radiolabeled, acetylated histones or peptide/HPLC methods for the assay of histone deacetylases. This assay is based on the ability of HeLa nuclear extract, which is enriched in HDAC activity, to mediate the deacetylation of the acetylated lysine side chain of the Fluor de Lys substrate. The assay procedure requires two steps. First, incubation of the HeLa nuclear extract with the Fluor de Lys substrate results in substrate deacetylation and thus sensitizes it to the second step. In the second step, treatment of the deacetylated substrate with the Fluor de Lys developer produces a fluorophore. The substrate-developer reaction, under normal circumstances goes to completion in less than 1 min at 25° C. The kit used was the Fluorimetric Assay/Drug Discovery Kit—AK-500 Manual Fluorescent Assay System available from BIOMOL® International, Plymouth Meeting, Pa.
The ketolides 56 were also evaluated for their HDAC inhibitory activity against HDACs 1 and 2 from HeLa cell nuclear extract, HDAC6, and HDAC8 using the Fluor de Lys assay.

Experiment [12] deals with Plasmodium falciparum (W2 clone), chloroquine-resistant. Briefly: Plasmodium growth inhibition, parasite lactate dehydrogenase assay (Malstat). Conditions: for Plasmodium falciparum (W2 clone) IC50: chloroquine-resistant; for S.I. (W2): selective toxicity index, Vero versus W2, value in brackets. It counts as cell-based. How it is done: (§4) The compounds described herein were also evaluated for parasitic activity against Plasmodium falciparum and Leismania donovani. P. falciparum and L. donovani are the causative parasites of malaria and leishmaniasis, two human diseases which constitute a serious threat to public health in tropical and sub-tropical countries. Antimalarial activity was evaluated in vitro using chloroquine-sensitive (D6, Sierra Leone) and chloroquine-resistant (W2, Indochina) strains of P. falciparum. Antileishmanial activity was evaluated in vitro against the promastigote stage of L. donovani.
(§5) Plasmodium growth inhibition was determined by a parasite lactate dehydrogenase assay using Malstat reagent. Inhibition of viability of the promastigote stage of L. donovani was determined using standard Alamar blue assay, modified to a fluorometric assay.
(§6) Macrocyclic histone deacetylase inhibitors were evaluated for parasitic activity against Plasmodium falciparum and Leismania donovani. P. falciparum and L. donovani are the causative parasites of malaria and leishmaniasis, two human diseases which constitute a serious threat to public health in tropical and sub-tropical countries. Antimalarial activity was evaluated in vitro using chloroquine-sensitive (D6, Sierra Leone) and chloroquine-resistant (W2, Indochina) strains of P. falciparum. Antileishmanial activity was evaluated in vitro against the promastigote stage of L. donovani.
as §5

Experiment [13] deals with Plasmodium falciparum (D6 clone), chloroquine-sensitive. The description is as above. In kind it is cell-based. As to conditions: for Plasmodium falciparum (D6 clone) IC50: chloroquine-sensitive; for S.I. D6: selective toxicity index, Vero versus D6. How it is done:
as §4, §5, §6, §5

For experiment [14], the system named is promastigote stage of L. donovani. Briefly: Antileishmanial Alamar blue fluorometric assay. In kind it is cell-based. As to conditions: promastigotes. The protocol:
as §4, §5, §6, §5
For orientation: Resazurin is reduced to fluorescent resorufin, in cell work by metabolically active cells.

[15] abbreviates: HDACs 1 and 2 from HeLa cell nuclear extract, Table 5, read-out: Nuclear Extract.

Molecules are shown by their SMILES. Read-outs that look alike come from different tables or passages of the source. Some results are limits rather than exact numbers.

Chain of HDAC8 (Q9BY41 whole entry, canonical isoform): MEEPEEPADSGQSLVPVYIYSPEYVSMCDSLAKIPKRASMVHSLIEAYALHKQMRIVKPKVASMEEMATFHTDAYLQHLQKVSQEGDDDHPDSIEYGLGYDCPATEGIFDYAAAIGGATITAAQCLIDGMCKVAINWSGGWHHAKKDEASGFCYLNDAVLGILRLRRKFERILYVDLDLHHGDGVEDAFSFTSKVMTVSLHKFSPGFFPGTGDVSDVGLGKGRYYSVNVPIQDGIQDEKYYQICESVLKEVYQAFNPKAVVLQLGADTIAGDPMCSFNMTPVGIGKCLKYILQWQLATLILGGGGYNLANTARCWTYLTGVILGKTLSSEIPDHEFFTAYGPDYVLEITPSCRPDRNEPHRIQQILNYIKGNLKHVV
Chain of HDAC6 (Q9UBN7 whole entry, canonical isoform): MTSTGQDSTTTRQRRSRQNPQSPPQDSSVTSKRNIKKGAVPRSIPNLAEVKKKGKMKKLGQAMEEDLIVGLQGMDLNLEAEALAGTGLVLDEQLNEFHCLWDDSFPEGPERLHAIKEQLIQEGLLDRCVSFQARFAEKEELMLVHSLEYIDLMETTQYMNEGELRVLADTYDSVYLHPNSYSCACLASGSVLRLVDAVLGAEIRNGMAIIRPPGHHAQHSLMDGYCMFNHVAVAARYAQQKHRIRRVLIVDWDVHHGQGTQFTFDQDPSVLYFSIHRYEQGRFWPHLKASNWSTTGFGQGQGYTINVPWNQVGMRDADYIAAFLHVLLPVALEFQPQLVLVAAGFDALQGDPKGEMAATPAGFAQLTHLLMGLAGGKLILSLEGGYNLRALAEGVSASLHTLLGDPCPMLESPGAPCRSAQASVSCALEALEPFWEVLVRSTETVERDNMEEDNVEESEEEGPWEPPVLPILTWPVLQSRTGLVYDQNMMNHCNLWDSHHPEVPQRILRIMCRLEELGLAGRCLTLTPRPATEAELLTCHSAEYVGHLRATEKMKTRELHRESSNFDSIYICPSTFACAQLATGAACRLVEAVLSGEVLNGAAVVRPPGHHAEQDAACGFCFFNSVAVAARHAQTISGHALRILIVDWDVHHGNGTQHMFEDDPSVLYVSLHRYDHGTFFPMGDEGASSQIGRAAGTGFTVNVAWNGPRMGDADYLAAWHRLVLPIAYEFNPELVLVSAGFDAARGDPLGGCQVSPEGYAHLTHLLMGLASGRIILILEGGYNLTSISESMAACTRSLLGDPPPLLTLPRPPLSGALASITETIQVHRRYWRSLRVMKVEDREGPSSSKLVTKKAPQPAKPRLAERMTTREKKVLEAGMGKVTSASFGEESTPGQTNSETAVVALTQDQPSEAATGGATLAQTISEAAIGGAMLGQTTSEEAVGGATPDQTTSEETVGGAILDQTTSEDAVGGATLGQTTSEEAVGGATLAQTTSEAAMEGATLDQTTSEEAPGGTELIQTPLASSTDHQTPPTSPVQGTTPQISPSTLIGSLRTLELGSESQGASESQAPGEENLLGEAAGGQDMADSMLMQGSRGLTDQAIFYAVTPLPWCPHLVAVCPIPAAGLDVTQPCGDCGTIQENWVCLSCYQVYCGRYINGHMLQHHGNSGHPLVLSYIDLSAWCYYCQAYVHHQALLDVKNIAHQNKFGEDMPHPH

In general, EC50 refers to the concentration that produces a half-maximal response. A low value points to a more potent agent. Take `CC[C@H]1OC(=O)[C@H](C)[C@@H](O[C@H]2C[C@@](C)(OC)[C@@H](O)[C@H](C)O2)[C@H](C)[C@@H](O[C@@H]2O[C@H](C)C[C@H](N(C)Cc3ccc(-c4cn(CCCCCCCCC(=O)NO)nn4)cc3)[C@H]2O)[C@](C)(OC)C[C@@H](C)C(=O)[C@H](C)[C@@H](O)[C@]1(C)O` [Compound 29, Clarithromycin-N-Phenyltriazolylnonahydroxamic acid]: the IC50 was determined as 10.6 µM in [1] (average of three independent experiments, Table 4) and 0.17 µM in experiment [2] (HeLa nuclear extract, average of three independent experiments, Table 4, read-out: HDAC ½). Besides, the EC50 was above 10 µM in experiment [3]; above 10 µM in experiment [4]; 8.14 µM in experiment [5]; 7.29 µM in experiment [6]; 7.12 µM in experiment [7].
Consider `CCC1OC(=O)C(C)C(=O)C(C)C(OC2OC(C)CC(N(C)Cc3ccc(-c4cn(CCCCCC(=O)NO)nn4)cc3)C2O)C(C)(OC)CC(C)C2=NCCN3C(=O)OC1(C)C3C2C` (stereo not shown) [Compound 56a, Tricyclic Ketolide-N-benzyltriazolylhexahydroxamic acid], for which the EC50 in experiment [8] amounted to 1.17 µM; in [9] it was 1.64 µM; in experiment [10], 1.26 µM. Moreover, the results for the IC50 in [1] (Table 5), in experiment [11] and in [2] (setting [15]) were 0.796 µM, 1.18 µM and 0.00777 µM, respectively. Besides, in experiment [1], the “HDAC8: Nuclear Extract Isoform Selectivity” value was 102.5. Further, the “HDAC6: Nuclear Extract Isoform Selectivity” value in experiment [11] is 151.9. Also, the “Plasmodium falciparum (W2 clone) IC50” value in [12] stood at 1.80 µg/mL. The “Plasmodium falciparum (D6 clone) IC50” value in experiment [13] worked out at 0.96 µg/mL. In addition, the “S.I. D6” value in experiment [13] was >5.0 (no value).
Regarding `CCC1OC(=O)C(C)C(=O)C(C)C(OC2OC(C)CC(N(C)Cc3ccc(-c4cn(CCCCCCC(=O)NO)nn4)cc3)C2O)C(C)(OC)CC(C)C2=NCCN3C(=O)OC1(C)C3C2C` (stereo not shown) [Compound 56b, Tricyclic Ketolide-N-benzyltriazolylheptahydroxamic acid], the results for the EC50 in [8], in experiment [9] and in experiment [10] were 0.66 µM, 0.82 µM and 0.75 µM, respectively. Moreover, the IC50 was 0.545 µM in experiment [1] (Table 5), 0.729 µM in experiment [11] and 0.00103 µM in experiment [2] (setting [15]). For the same compound, in experiment [1], the “HDAC8: Nuclear Extract Isoform Selectivity” value was determined as 528.7. Besides, in experiment [11], the “HDAC6: Nuclear Extract Isoform Selectivity” value came to 707.5. In addition, in experiment [2] (HDACs 1 and 2 from HeLa cell nuclear extract, Table 5), the “Nuclear Extract (nM)” value is “single digit nanomolar”. The “Plasmodium falciparum (W2 clone) IC50” value in experiment [12] amounted to 0.12 µg/mL. Also, the “S.I. (W2)” value in [12] is above 39.7. The “Plasmodium falciparum (D6 clone) IC50” value in [13] turned out to be 0.14 µg/mL. For the same compound, in [13], the “S.I. D6” value was above 34.
Consider `CCC1OC(=O)C(C)C(=O)C(C)C(OC2OC(C)CC(N(C)Cc3ccc(-c4cn(CCCCCCCC(=O)NO)nn4)cc3)C2O)C(C)(OC)CC(C)C2=NCCN3C(=O)OC1(C)C3C2C` (stereo not shown) [Compound 56c, Tricyclic Ketolide-N-benzyltriazolyloctahydroxamic acid], for which, in experiment [14], the “Antileshmanial activity IC50” value is 19 µg/mL and the “Antileshmanial activity IC90” value was 36 µg/mL. In addition, the EC50 in experiment [8] turned out to be 1.64 µM. For the same compound, the EC50 in experiment [9] came out at 3.7 µM. For the same compound, the EC50 in [10] came out at 1.35 µM. The IC50 in experiment [1] (Table 5) came to 1.91 µM. The “HDAC8: Nuclear Extract Isoform Selectivity” value in experiment [1] turned out to be 18.3. In experiment [11], the IC50 was found to be 1.71 µM and the “HDAC6: Nuclear Extract Isoform Selectivity” value is given as 16.4. In addition, the IC50 in [2] (setting [15]) came out at 0.104 µM. In addition, in [12], the “Plasmodium falciparum (W2 clone) IC50” value is 1.50 µg/mL and the “S.I. (W2)” value is recorded as above 3.2. Further, in [13], the “Plasmodium falciparum (D6 clone) IC50” value amounted to 1.20 µg/mL and the “S.I. D6” value is reported as above 4.0.
`CCC1OC(=O)C(C)C(=O)C(C)C(OC2OC(C)CC(N(C)Cc3ccc(-c4cn(CCCCCCCCC(=O)NO)nn4)cc3)C2O)C(C)(OC)CC(C)C2=NCCN3C(=O)OC1(C)C3C2C` (stereo not shown) [Compound 56d, Tricyclic Ketolide-N-benzyltriazolylnonahydroxamic acid]: in experiment [14], the “Antileshmanial activity IC50” value was found to be 14 µg/mL. Further, the “Antileshmanial activity IC90” value in experiment [14] came out at 32 µg/mL. The EC50 worked out at 2.48 µM in experiment [8], 3.89 µM in experiment [9] and 2.56 µM in [10]. Moreover, the figures for the IC50 in [1] (Table 5), in experiment [11] and in experiment [2] (setting [15]) were 2.86 µM, 1.92 µM and 0.164 µM, respectively. In addition, in [1], the “HDAC8: Nuclear Extract Isoform Selectivity” value is 17.5. Moreover, in [11], the “HDAC6: Nuclear Extract Isoform Selectivity” value stood at 11.7. Moreover, the “Plasmodium falciparum (W2 clone) IC50” value in experiment [12] was 1.30 µg/mL. Moreover, in experiment [12], the “S.I. (W2)” value is listed as above 3.7. In addition, the “Plasmodium falciparum (D6 clone) IC50” value in experiment [13] turned out to be 1.20 µg/mL. Also, the “S.I. D6” value in experiment [13] is recorded as above 4.0.
As to `CCC1OC(=O)C(C)C(=O)C(C)C(OC2OC(C)CC(N(C)Cc3ccc(-c4cn(CCCCCCCCCC(=O)NO)nn4)cc3)C2O)C(C)(OC)CC(C)C2=NCCN3C(=O)OC1(C)C3C2C` (stereo not shown) [Compound 56e, Tricyclic Ketolide-N-benzyltriazolyldecahydroxamic acid], in [14], the “Antileshmanial activity IC50” value was 4.8 µg/mL and the “Antileshmanial activity IC90” value stood at 23 µg/mL. Further, the EC50 in experiment [8] worked out at 2.81 µM. The compound also displayed an EC50 in experiment [9] of 4.83 µM. This compound gave an EC50 in experiment [10] of 3.68 µM. In experiment [1] (Table 5), the IC50 came out at 4.56 µM. Besides, the “HDAC8: Nuclear Extract Isoform Selectivity” value in experiment [1] amounted to 21.9. Besides, in [11], the IC50 worked out at 3.2 µM and the “HDAC6: Nuclear Extract Isoform Selectivity” value was 15.4. Also, the IC50 in [2] (setting [15]) amounted to 0.208 µM. For the same compound, in [12], the “Plasmodium falciparum (W2 clone) IC50” value is 0.84 µg/mL and the “S.I. (W2)” value was above 5.7. In addition, in [13], the “Plasmodium falciparum (D6 clone) IC50” value is 1.20 µg/mL and the “S.I. D6” value is recorded as above 4.0.
